Laboratory results: patent publication US8785457B2 (Cellzome Limited, priority 2009, dated 2014)
Counter-ions that a name gives are not always drawn. Like-named read-outs stand apart in the source and are kept apart here.

Legend:
[1] = biological target: T1, PI3 Kgamma (PI3 Kg) (Homo sapiens, UniProt P48736); experiment: kinobeads assay, PI3Kgamma; type: binding
T1 construct: endogenous in cells; host or cells: cell lysate
Experimental: (§1) The kinobeads assay was performed as a competitive binding assay in which test compounds were added directly into a cell lysate. Test compounds (at various concentrations) and the affinity matrix (beads with immobilized phenylmorpholin-chromen ligand) were added to cell lysate aliquots and allowed to bind to the proteins contained in the lysate sample. After the incubation time the beads with captured proteins were separated from the lysate. Bound proteins were then eluted and the presence of kinases was detected and quantified using a multiplexed immunodetection format. Dose response curves for individual kinases were generated and IC50 values calculated.
(§2) The effect of the compounds on the kinases PI3Kalpha (PI3Ka), PI3 Kbeta (PI3 Kb) and PI3 Kgamma (PI3 Kg) were tested in the kinobeads assay as described (WO-A 2009/098021).

[2] = biological target: T2, DNA-dependent protein kinase (DNA-PK) (Homo sapiens, UniProt P78527); experiment: kinobeads assay, DNA-PK; type: binding
T2 construct: endogenous in cells; host or cells: Jurkat, clone E6-1 (ATCC TIB-152) cell lysate
Experimental: (§3) The compounds of the present invention as described were tested in the mTOR kinobeads assay as described below. Briefly, test compounds (at various concentrations) and the affinity matrix with the immobilized phenylmorpholin-chromen ligand (8-(4-aminomethyl-phenyl)-2-morpholin-4-yl-chromen-4-one) were added to cell lysate aliquots and allowed to bind to the proteins in the lysate sample. After the incubation time the beads with captured proteins were separated from the lysate. Bound proteins were then eluted and the presence of mTOR, PI3K delta (PI3 Kd) and DNA-dependent protein kinase (DNA-PK) was detected and quantified using a specific antibody in a dot blot procedure and the Odyssey infrared detection system. Kinobeads assays for PI3K (WO-A 2008/015013) and for kinase selectivity profiling (WO 2006/134056) have been previously described.
as §1
(§4) The affinity matrix (beads with immobilized phenylmorpholin-chromen ligand) was washed two times with 15 ml of 1×DP buffer containing 0.2% NP40 (IGEPAL® CA-630, Sigma, #13021) and then resupended in 5.5 ml of 1×DP buffer containing 0.2% NP40 (10% beads slurry).
(§5) 5×DP buffer: 250 mM Tris-HCl pH 7.4, 25% Glycerol, 7.5 mM MgCl2, 750 mM NaCl, 5 mM Na3VO4, filter the 5×-lysis buffer through 0.22 μm filter and store in aliquots at −80° C. The 5×DP buffer is diluted to 1×DP buffer containing 1 mM DTT and 25 mM NaF.
(§6) Stock solutions of test compounds were prepared in DMSO. In a 96 well plate 30 μl solution of diluted test compounds at 5 mM in DMSO were prepared. Starting with this solution a 1:3 dilution series (9 steps) was prepared. For control experiments (no test compound) a buffer containing 2% DMSO was used. Compound CZC00018052 served as a positive control (PI-103; Calbiochem catalogue number 528100).
(§7) Jurkat cells (ATCC catalogue number TIB-152 Jurkat, clone E6-1) were grown in 1 liter Spinner flasks (Integra Biosciences, #182101) in suspension in RPMI 1640 medium (Invitrogen, #21875-034) supplemented with 10% Fetal Bovine Serum (Invitrogen) at a density between 0.15×10^6 and 1.2×10^6 cells/ml. Cells were harvested by centrifugation, washed once with 1×PBS buffer (Invitrogen, #14190-094) and cell pellets were frozen in liquid nitrogen and subsequently stored at −80° C.
(§8) Jurkat cells were homogenized in a Potter S homogenizer in lysis buffer: 50 mM Tris-HCl, 0.8% NP40, 5% glycerol, 150 mM NaCl, 1.5 mM MgCl2, 25 mM NaF, 1 mM sodium vanadate, 1 mM DTT, pH 7.5. One complete EDTA-free tablet (protease inhibitor cocktail, Roche Diagnostics, 1873580) per 25 ml buffer was added. The material was dounced 10 times using a mechanized POTTER S, transferred to 50 ml falcon tubes, incubated for 30 minutes on ice and spun down for 10 min at 20,000 g at 4° C. (10,000 rpm in Sorvall SLA600, precooled). The supernatant was transferred to an ultracentrifuge (UZ)-polycarbonate tube (Beckmann, 355654) and spun for 1 hour at 100.000 g at 4° C. (33.500 rpm in Ti50.2, precooled). The supernatant was transferred again to a fresh 50 ml falcon tube, the protein concentration was determined by a Bradford assay (BioRad) and samples containing 50 mg of protein per aliquot were prepared. The samples were immediately used for experiments or frozen in liquid nitrogen and stored frozen at −80° C. […]

[3] = biological target: T3, PI3 Kbeta (PI3 Kb) (Homo sapiens, UniProt P42338); experiment: kinobeads assay, PI3Kbeta; type: binding
T3 construct: endogenous in cells; host or cells: cell lysate
T3 sequence (P42338 whole entry): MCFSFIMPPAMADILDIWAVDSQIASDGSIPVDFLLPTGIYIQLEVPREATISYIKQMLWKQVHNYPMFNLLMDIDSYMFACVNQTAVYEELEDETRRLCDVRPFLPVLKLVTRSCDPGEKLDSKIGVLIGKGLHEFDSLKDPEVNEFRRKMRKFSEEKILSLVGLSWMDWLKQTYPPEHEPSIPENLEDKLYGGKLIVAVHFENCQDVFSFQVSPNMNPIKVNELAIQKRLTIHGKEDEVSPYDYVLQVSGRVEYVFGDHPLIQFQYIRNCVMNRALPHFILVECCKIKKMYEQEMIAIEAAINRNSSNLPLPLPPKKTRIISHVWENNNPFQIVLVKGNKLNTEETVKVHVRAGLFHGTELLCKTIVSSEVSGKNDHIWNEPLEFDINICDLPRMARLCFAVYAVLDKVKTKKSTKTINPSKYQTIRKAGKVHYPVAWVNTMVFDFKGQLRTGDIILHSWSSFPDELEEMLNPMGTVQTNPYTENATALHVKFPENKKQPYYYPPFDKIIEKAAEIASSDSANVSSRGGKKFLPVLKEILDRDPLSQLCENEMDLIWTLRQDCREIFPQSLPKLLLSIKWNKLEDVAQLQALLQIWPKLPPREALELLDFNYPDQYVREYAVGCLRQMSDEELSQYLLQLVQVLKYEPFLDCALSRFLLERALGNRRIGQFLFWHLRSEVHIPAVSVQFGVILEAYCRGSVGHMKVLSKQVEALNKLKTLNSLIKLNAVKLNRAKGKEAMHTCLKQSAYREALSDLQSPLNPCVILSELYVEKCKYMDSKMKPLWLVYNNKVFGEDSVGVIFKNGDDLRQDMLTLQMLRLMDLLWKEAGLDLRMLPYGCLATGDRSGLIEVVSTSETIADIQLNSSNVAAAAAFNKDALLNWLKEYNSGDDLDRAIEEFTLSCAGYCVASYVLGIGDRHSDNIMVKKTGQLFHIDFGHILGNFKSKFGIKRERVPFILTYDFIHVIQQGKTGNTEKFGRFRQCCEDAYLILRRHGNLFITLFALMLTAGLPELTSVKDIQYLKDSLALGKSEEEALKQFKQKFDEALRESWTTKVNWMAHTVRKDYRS
T3 sequence (P27986 whole entry partner): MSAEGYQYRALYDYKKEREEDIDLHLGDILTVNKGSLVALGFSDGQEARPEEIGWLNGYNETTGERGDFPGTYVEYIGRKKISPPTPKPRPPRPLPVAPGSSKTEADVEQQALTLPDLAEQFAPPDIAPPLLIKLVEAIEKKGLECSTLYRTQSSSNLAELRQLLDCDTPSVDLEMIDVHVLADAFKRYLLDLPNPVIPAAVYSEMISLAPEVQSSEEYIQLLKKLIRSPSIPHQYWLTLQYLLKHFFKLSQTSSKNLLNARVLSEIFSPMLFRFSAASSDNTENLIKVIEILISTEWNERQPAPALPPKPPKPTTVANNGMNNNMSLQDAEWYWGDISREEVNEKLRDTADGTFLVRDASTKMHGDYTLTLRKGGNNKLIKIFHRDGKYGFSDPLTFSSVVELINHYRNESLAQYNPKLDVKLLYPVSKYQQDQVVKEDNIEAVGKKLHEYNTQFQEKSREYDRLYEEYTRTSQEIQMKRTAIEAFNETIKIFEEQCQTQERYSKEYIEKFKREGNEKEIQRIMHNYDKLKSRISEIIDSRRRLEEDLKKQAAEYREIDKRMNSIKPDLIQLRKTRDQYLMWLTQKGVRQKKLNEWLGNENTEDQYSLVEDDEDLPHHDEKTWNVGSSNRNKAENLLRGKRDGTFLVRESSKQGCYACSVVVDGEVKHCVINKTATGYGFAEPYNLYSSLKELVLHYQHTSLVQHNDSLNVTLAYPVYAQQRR
Experimental: as §1, §2

[4] = biological target: T4, mTOR (Homo sapiens, UniProt P42345); experiment: mTOR kinobeads assay (competitive binding in Jurkat cell lysate, immunodetection)
T4 construct: endogenous in cells; host or cells: Jurkat, clone E6-1 (ATCC TIB-152) cell lysate
Experimental: The compounds of the present invention as described were tested in the mTOR kinobeads assay as described below. […] After the incubation time the beads with captured proteins were separated from the lysate. Bound proteins were then eluted and the presence of mTOR, PI3K delta (PI3 Kd) and DNA-dependent protein kinase (DNA-PK) was detected and quantified using a specific antibody in a dot blot procedure and the Odyssey infrared detection system.
as §1, §5
as §6, with “used.” for “used. Compound CZC00018052 served as a positive control (PI-103; Calbiochem catalogue number 528100).”
Jurkat cells were homogenized in a Potter S homogenizer in lysis buffer: 50 mM Tris-HCl, 0.8% NP40, 5% glycerol, 150 mM NaCl, 1.5 mM MgCl2, 25 mM NaF, 1 mM sodium vanadate, 1 mM DTT, pH 7.5. […] The material was dounced 10 times using a mechanized POTTER S, transferred to 50 ml falcon tubes, incubated for 30 minutes on ice and spun down for 10 min at 20,000 g at 4° C. (10,000 rpm in Sorvall SLA600, precooled). […] (33.500 rpm in Ti50.2, precooled). The supernatant was transferred again to a fresh 50 ml falcon tube, the protein concentration was determined by a Bradford assay (BioRad) and samples containing 50 mg of protein per aliquot were prepared. The samples were immediately used for experiments or frozen in liquid nitrogen and stored frozen at −80° C.
Jurkat cell lysate (approximately 50 mg protein per plate) was thawed in a water bath at room temperature and then kept on ice. […] The diluted cell lysate was stored on ice.
Plates were sealed and incubated for two hours in a cold room on a Thermoxer with shaking (750 rpm). Afterwards the plate was washed twice with 230 μl washing buffer (1×DP 0.4% NP40). […] The eluate was frozen quickly at −80° C. and stored at −20° C.
The kinases in the eluates were detected and quantified by spotting on Nitrocellulose membranes and using a first antibody directed against the kinase of interest and a fluorescently labeled secondary antibody (anti-mouse or anti-rabbit IRDye™ antibodies from Rockland).
Afterwards the membrane was washed three times for 10 minutes with PBS buffer containing 0.1% Tween 20 at room temperature. […] Afterwards the membrane was washed three times for 10 minutes each with 1×PBS buffer containing 0.1% Tween 20 at room temperature. Then the membrane was rinsed once with PBS buffer to remove residual Tween 20. The membrane was kept in PBS buffer at 4° C. and then scanned with the Odyssey instrument. Fluorescence signals were recorded and analysed according to the instructions of the manufacturer.

[5] = biological target: T5, PI3Kalpha (PI3Ka) (Homo sapiens, UniProt P42336); experiment: kinobeads assay, PI3Kalpha; type: binding
T5 construct: endogenous in cells; host or cells: cell lysate
T5 sequence (P42336 whole entry): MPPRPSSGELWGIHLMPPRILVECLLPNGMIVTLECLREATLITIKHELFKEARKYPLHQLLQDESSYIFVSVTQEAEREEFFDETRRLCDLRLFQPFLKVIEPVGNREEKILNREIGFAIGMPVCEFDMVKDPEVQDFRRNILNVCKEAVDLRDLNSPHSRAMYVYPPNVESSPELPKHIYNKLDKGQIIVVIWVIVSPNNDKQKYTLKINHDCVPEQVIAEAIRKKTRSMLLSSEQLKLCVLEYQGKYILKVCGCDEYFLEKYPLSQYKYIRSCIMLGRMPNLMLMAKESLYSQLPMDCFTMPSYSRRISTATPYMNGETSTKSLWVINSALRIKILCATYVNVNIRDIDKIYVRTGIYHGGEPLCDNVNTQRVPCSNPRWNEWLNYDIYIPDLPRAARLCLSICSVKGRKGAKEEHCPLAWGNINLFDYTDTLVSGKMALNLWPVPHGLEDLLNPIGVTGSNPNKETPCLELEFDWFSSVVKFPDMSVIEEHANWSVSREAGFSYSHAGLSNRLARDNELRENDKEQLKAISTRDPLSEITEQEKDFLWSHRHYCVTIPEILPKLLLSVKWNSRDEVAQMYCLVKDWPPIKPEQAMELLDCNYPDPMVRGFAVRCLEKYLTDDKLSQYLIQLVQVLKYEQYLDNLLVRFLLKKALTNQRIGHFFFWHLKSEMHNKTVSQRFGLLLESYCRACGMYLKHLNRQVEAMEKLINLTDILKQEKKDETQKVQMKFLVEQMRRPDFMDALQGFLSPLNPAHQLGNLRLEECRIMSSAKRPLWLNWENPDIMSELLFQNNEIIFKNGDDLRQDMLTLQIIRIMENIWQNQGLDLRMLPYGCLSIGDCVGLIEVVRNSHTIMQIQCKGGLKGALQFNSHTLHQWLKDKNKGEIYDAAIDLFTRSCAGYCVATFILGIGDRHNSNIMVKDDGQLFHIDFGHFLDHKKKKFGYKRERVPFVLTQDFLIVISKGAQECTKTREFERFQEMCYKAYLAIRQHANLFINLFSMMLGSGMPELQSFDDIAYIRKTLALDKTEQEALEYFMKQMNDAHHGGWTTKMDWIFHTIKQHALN
T5 sequence (P27986 whole entry partner): as the sequence (P27986 whole entry partner) above
Experimental: as §1, §2

[6] = biological target: T6, PI3K delta (PI3 Kd) (Homo sapiens, UniProt O00329); experiment: kinobeads assay, PI3K delta; type: binding
T6 construct: endogenous in cells; host or cells: Jurkat, clone E6-1 (ATCC TIB-152) cell lysate
T6 sequence (O00329 whole entry): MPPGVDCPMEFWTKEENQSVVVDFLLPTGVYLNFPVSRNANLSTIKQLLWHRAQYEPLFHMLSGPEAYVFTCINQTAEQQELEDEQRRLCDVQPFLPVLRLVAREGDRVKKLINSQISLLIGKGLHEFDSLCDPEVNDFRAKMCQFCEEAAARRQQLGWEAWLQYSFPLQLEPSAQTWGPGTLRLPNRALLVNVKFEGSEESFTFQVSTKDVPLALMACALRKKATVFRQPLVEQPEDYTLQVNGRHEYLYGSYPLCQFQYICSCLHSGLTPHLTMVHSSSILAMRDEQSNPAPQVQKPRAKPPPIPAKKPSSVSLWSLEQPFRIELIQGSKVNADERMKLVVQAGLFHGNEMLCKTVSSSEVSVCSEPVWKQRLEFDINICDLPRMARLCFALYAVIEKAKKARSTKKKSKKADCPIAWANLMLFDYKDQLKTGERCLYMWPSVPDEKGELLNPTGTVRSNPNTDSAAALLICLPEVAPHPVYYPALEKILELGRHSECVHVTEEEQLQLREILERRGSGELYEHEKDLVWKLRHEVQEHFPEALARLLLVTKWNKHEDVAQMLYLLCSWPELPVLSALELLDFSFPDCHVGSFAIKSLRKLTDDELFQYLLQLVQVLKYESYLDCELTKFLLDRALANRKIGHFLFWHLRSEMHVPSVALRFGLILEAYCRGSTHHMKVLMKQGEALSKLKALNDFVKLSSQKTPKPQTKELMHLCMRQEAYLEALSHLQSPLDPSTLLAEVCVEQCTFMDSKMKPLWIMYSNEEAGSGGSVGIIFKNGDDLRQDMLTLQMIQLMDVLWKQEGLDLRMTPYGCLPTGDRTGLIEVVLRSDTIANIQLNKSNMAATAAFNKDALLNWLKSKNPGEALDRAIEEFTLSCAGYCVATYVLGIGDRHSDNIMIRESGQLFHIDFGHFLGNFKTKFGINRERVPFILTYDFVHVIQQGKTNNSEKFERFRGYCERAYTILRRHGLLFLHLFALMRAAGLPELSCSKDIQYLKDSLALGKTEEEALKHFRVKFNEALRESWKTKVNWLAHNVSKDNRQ
T6 sequence (P27986 whole entry partner): as the sequence (P27986 whole entry partner) above
Experimental: as §3, §1, §4, §5, §6, §7, §8

[7] = Further Kinobeads Data, read-out: PI3Kg
[8] = Further Kinobeads Data, read-out: DNAPK
[9] = Further Kinobeads Data, read-out: PI3Kb
[10] = Further Kinobeads Data, read-out: mTor
[11] = Further Kinobeads Data, read-out: PI3Kd
[12] = kinobeads assay, Table 6, read-out: Inhibition values (IC50) PI3Kg
[13] = kinobeads assay, Table 6, read-out: Inhibition values (IC50) DNAPK
[14] = kinobeads assay, Table 6, read-out: Inhibition values (IC50) PI3Kb
[15] = kinobeads assay, Table 6, read-out: Inhibition values (IC50) mTOR
[16] = kinobeads assay, Table 6, read-out: Inhibition values (IC50) PI3Ka
[17] = kinobeads assay, Table 6, read-out: Inhibition values (IC50) PI3Kd

T1 sequence (P48736 whole entry): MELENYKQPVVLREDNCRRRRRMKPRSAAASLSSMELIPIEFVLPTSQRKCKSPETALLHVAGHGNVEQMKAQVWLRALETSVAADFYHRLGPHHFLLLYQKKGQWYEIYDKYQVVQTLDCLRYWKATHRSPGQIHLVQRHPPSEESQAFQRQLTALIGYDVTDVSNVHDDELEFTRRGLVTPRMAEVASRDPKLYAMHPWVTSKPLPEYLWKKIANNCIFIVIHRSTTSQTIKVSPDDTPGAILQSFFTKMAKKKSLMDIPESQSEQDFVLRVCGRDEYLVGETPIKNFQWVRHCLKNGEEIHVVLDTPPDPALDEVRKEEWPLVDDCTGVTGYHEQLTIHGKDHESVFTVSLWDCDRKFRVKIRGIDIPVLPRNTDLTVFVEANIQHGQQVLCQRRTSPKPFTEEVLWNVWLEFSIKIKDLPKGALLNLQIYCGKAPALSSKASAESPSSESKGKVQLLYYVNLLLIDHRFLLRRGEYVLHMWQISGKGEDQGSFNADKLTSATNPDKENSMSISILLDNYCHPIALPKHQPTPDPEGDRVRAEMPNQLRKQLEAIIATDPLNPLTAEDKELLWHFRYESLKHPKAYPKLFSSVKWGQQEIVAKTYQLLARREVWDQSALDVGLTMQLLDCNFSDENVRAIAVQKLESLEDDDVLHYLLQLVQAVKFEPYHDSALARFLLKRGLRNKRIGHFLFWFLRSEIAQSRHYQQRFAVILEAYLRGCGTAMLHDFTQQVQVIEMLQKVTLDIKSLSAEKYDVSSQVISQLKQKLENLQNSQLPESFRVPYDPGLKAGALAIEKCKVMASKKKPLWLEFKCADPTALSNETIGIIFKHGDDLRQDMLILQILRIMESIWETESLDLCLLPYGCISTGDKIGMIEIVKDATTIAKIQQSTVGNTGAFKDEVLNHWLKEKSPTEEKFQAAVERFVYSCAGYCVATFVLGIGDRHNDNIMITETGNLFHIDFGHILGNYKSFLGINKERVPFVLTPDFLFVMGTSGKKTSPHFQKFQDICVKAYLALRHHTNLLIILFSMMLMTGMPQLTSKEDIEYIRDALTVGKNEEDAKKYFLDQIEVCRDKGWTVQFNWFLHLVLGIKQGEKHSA

Row | SMILES | IC50 [1, 7] | IC50 [2, 8] | IC50 [3, 9] | IC50 [4, 10] | IC50 ([5]; Further Kinobeads Data, read-out: PI3Ka) | IC50 [6, 11] | IC50 [1, 12] | IC50 [2, 13] | IC50 [3, 14] | IC50 [4, 15] | IC50 [5, 16] | IC50 [6, 17] | PI3Ka ([5]; Further Kinobeads Data) | Inhibition values (IC50) PI3Ka ([5]; kinobeads assay, Table 6)
1 | CCNC(=O)Nc1ccc(-c2nc3c(c(N4CCOCC4)n2)CNC3)c(F)c1 [Example 150, 1-Ethyl-3-(3-fluoro-4-(4-morpholino-6,7-dihydro-5H-pyrrolo[3,4-d]pyrimidin-2-yl)phenyl)urea hydrochloride] | > 10 µM | > 10 µM | > 10 µM | < 0.1 µM | 1 to 10 µM | > 10 µM |  |  |  |  |  |  |  | 
2 | C[C@H]1COCCN1c1nc(-c2ccc(NC(=O)NC3CC3)cc2)nc2c1CN(CCCC(=O)O)C2 [Example 134, (S)-4-(2-(4-(3-cyclopropylureido)phenyl)-4-(3-methylmorpholino)-5H-pyrrolo[3,4-d]pyrimidin-6(7H)-yl)butanoic acid] |  |  |  |  |  |  | > 10 µM | > 10 µM | > 10 µM | < 0.1 µM | 1 to 10 µM | > 10 µM |  | 
3 | C[C@H]1COCCN1c1nc(-c2ccc(NC(=O)NC3CC3)cc2)nc2c1CN(CC1CCNCC1)C2 [Example 130, (S)-1-cyclopropyl-3-(4-(4-(3-methylmorpholino)-6-(piperidin-4-ylmethyl)-6,7-dihydro-5H-pyrrolo[3,4-d]pyrimidin-2-yl)phenyl)urea] |  |  |  |  |  |  | > 10 µM | > 10 µM | 1 to 10 µM | < 0.1 µM | 1 to 10 µM | 1 to 10 µM |  | 
4 | COC(=O)N1Cc2nc(-c3ccc(NC(=O)NCCO)cc3F)nc(N3CCOCC3)c2C1 [Example 175, Methyl 2-(2-fluoro-4-(3-(2-hydroxyethyl)ureido)phenyl)-4-morpholino-5H-pyrrolo[3,4-d]pyrimidine-6(7H)-carboxylate] | > 10 µM | > 10 µM | > 10 µM | 0.1 to 1 µM |  | > 10 µM |  |  |  |  |  |  | D (D >10 μM) | 
5 | C[C@H]1COCCN1c1nc(-c2ccc(NC(=O)NC3CC3)cc2)nc2c1CN(C(=O)CCN1CCCC1=O)C2 [Example 132, (S)-1-cyclopropyl-3-(4-(4-(3-methylmorpholino)-6-(3-(2-oxopyrrolidin-1-yl)propanoyl)-6,7-dihydro-5H-pyrrolo[3,4-d]pyrimidin-2-yl)phenyl)urea] |  |  |  |  |  |  | > 10 µM | > 10 µM | 1 to 10 µM | < 0.1 µM | 1 to 10 µM | 1 to 10 µM |  | 
6 | CCNC(=O)Nc1ccc(-c2nc3c(c(N4CCOC[C@@H]4C)n2)CN(C(C)=O)C3)c(F)c1 [Example 157, (S)-1-(4-(6-acetyl-4-(3-methylmorpholino)-6,7-dihydro-5H-pyrrolo[3,4-d]pyrimidin-2-yl)-3-fluorophenyl)-3-ethylurea] | > 10 µM | > 10 µM | > 10 µM | < 0.1 µM |  | 1 to 10 µM |  |  |  |  |  |  | D (D >10 μM) | 
7 | CC(C)N1Cc2nc(-c3ccc(NC(=O)NCCO)cc3F)nc(N3CCOCC3)c2C1 [Example 184, 1-(3-fluoro-4-(6-isopropyl-4-morpholino-6,7-dihyro-5H-pyrrolo[3,4-d]pyrimidin-2-yl)phenyl)-3-(2-hydroxyethyl)urea] | > 10 µM | > 10 µM | > 10 µM | < 0.1 µM |  | 1 to 10 µM |  |  |  |  |  |  | D (D >10 μM) | 
8 | CCOC(=O)N1Cc2nc(-c3ccc(NC(=O)Nc4cccnc4)cc3)nc(N3CCOC[C@@H]3C)c2C1 [Example 118, (S)-ethyl 4-(3-methylmorpholino)-2-(4-(3-(pyridin-3-yl)ureido)phenyl)-5H-pyrrolo[3,4-d]pyrimidine-6(7H)-carboxylate] |  |  |  |  |  |  | > 10 µM | > 10 µM | > 10 µM | 0.1 to 1 µM |  | > 10 µM |  | D (D >10 μM)
9 | CCNC(=O)Nc1ccc(-c2nc3c(c(N4CCOC[C@@H]4C)n2)CN(C(=O)C2CCN(C(C)=O)CC2)C3)cc1F [Example 123, (S)-1-(4-(6-(1-acetylpiperidine-4-carbonyl)-4-(3-methylmorpholino)-6,7-dihydro-5H-pyrrolo[3,4-d]pyrimidin-2-yl)-2-fluorophenyl)-3-ethylurea] |  |  |  |  |  |  | > 10 µM | > 10 µM | > 10 µM | 0.1 to 1 µM |  | > 10 µM |  | D (D >10 μM)
10 | C[C@H]1COCCN1c1nc(-c2ccc(NC(=O)NC3CC3)cc2)nc2c1CN(C(=O)CCNC(N)=O)C2 [Example 136, (S)-1-cyclopropyl-3-(4-(4-(3-methylmorpholino)-6-(3-ureidopropanoyl)-6,7-dihydro-5H-pyrrolo[3,4-d]pyrimidin-2-yl)phenyl)urea] |  |  |  |  |  |  | > 10 µM | > 10 µM | 1 to 10 µM | < 0.1 µM | 1 to 10 µM | 1 to 10 µM |  | 
